In US9615576B2, “Pesticidal compositions and processes related thereto” (Dow AgroSciences LLC, priority 2011, dated 2017):
Read-outs that look alike come from different tables or passages of the source.

Tests used:
[1] = system: Corn Earworm (CEW) (Helicoverpa zea); assay: Bioassays on Corn Earworm (CEW), 128-well diet tray assay; format: in vivo; conditions: 168 h, read-out: CEW Rating (% mortality)
Outline: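 Second-instar larvae (one to five per well) placed on artificial diet treated with 50 μg/cm^2 compound in 90:10 acetone-water, dried; eight wells per compound. Held at 25° C, 14:10 light-dark, five to seven days; percent mortality averaged over wells.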

[2] = system: Beet Armyworm (BAW) (Spodoptera exigua); assay: Bioassays on Beet Armyworm (BAW), 128-well diet tray assay; format: in vivo; conditions: 168 h, read-out: BAW Rating (% mortality)
Outline: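 Second-instar larvae (1–5 per well) on artificial diet surface-treated with 50 μg/cm^2 compound applied in 90:10 acetone-water and dried; eight wells per compound. Held 5–7 days at 25° C., 14:10 light-dark. Percent mortality scored per well and averaged over eight wells.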

[3] = 50 μg/cm^2 test compound on artificial diet, second instar larvae, 25° C., five to seven days, average of eight wells

SMILES | mortality at 50 µg/cm2 [1, 3] [%] | mortality at 50 µg/cm2 [2, 3] [%] | mortality at 50 µg/cm2 [1] [%] | mortality at 50 µg/cm2 [2] [%]
O=C(Cn1ncc2cc(/C=C/C(c3cc(Cl)c(F)c(Cl)c3)C(F)(F)F)ccc2c1=O)NCC(F)(F)F (stereo not drawn) [BC14, (E)-2-(6-(3-(3,5-dichloro-4-fluorophenyl)-4,4,4-trifluorobut-1-en-1-yl)-1-oxophthalazin-2(1H)-yl)-N-(2,2,2-trifluoroethyl)acetamide] | 0 | 50 to 100 |  | 
CC(=O)NCc1ccc(/C=C/C(c2cc(Cl)cc(Cl)c2)C(F)(F)F)cc1 (stereo not drawn) [CC1, (E)-N-(4-(3-(3,5-dichlorophenyl)-4,4,4-trifluorobut-1-enyl)benzyl)acetamide] | 0 | 0 |  | 
O=C(NCc1ccc(/C=C/C(c2cc(Cl)cc(Cl)c2)C(F)(F)F)cc1)C1CC1 (stereo not drawn) [CC2] | 50 to 100 | 50 to 100 |  | 
O=C(CC(F)(F)F)NCc1ccc(/C=C/C(c2cc(Cl)cc(Cl)c2)C(F)(F)F)cc1 (stereo not drawn) [CC3] | 50 to 100 | 50 to 100 |  | 
CCC(=O)NCc1ccc(/C=C/C(c2cc(Cl)cc(Cl)c2)C(F)(F)F)cc1 (stereo not drawn) [CC4] | 0 to 50 | 50 to 100 |  | 
O=C(NCc1ccc(/C=C/C(c2cc(Cl)c(Cl)c(Cl)c2)C(F)(F)F)cc1)C1CC1 (stereo not drawn) [CC5] | 50 to 100 | 50 to 100 |  | 
O=C(CC(F)(F)F)NCc1ccc(/C=C/C(c2cc(Cl)c(Cl)c(Cl)c2)C(F)(F)F)cc1 (stereo not drawn) [CC6] | 50 to 100 | 50 to 100 |  | 
CC(=O)NCc1ccc(/C=C/C(c2cc(Cl)cc(Cl)c2)C(F)(F)F)cc1Cl (stereo not drawn) [CC7, (E)-N-(2-chloro-4-(3-(3,5-dichlorophenyl)-4,4,4-trifluorobut-1-en-1-yl)benzyl)acetamide] | 50 to 100 | 50 to 100 |  | 
O=C(NCc1ccc(/C=C/C(c2cc(Cl)cc(Cl)c2)C(F)(F)F)cc1Cl)C1CC1 (stereo not drawn) [CC8] | 50 to 100 | 50 to 100 |  | 
O=C(CC(F)(F)F)NCc1ccc(/C=C/C(c2cc(Cl)cc(Cl)c2)C(F)(F)F)cc1Cl (stereo not drawn) [CC9] | 50 to 100 | 50 to 100 |  | 
O=C(CC(F)(F)F)NCc1ccc(/C=C/C(c2cc(Cl)c(Cl)c(Cl)c2)C(F)(F)F)cc1Cl (stereo not drawn) [CC10] | 50 to 100 | 50 to 100 |  | 
O=C(NCc1ccc(/C=C/C(c2cc(Cl)c(Cl)c(Cl)c2)C(F)(F)F)cc1Cl)C1CC1 (stereo not drawn) [CC11] | 50 to 100 | 50 to 100 |  | 
CC(C)(C)C(=O)NCc1ccc(/C=C/C(c2cc(Cl)c(Cl)c(Cl)c2)C(F)(F)F)cc1Cl (stereo not drawn) [CC12] | 0 | 0 |  | 
O=C(NCc1ccc(/C=C/C(c2cc(Cl)c(Cl)c(Cl)c2)C(F)(F)F)cc1)c1ccnc(Cl)c1 (stereo not drawn) [CC13] | 50 to 100 | 50 to 100 |  | 
O=C(Cc1ccc(Cl)nc1)NCc1ccc(/C=C/C(c2cc(Cl)c(Cl)c(Cl)c2)C(F)(F)F)cc1Cl (stereo not drawn) [CC14] | 0 | 50 to 100 |  | 
O=C(NCc1ccc(/C=C/C(c2cc(Cl)c(F)c(Cl)c2)C(F)(F)F)cc1Cl)C1CC1 (stereo not drawn) [CC15] | 50 to 100 | 50 to 100 |  | 
O=C(CC(F)(F)F)NCc1ccc(/C=C/C(c2cc(Cl)c(F)c(Cl)c2)C(F)(F)F)cc1 (stereo not drawn) [CC16] | 50 to 100 | 50 to 100 |  | 
O=C(NCc1ccc(/C=C/C(c2ccc(Cl)c(Cl)c2)C(F)(F)F)cc1Cl)C1CC1 (stereo not drawn) [CC17] | 50 to 100 | 50 to 100 |  | 
O=C(CC(F)(F)F)NCc1ccc(/C=C/C(c2ccc(Cl)c(Cl)c2)C(F)(F)F)cc1Cl (stereo not drawn) [CC18] | 50 to 100 | 50 to 100 |  | 
CSCCC(=O)NCc1ccc(/C=C/C(c2cc(Cl)c(Cl)c(Cl)c2)C(F)(F)F)cc1Cl (stereo not drawn) [CC19] | 50 to 100 | 50 to 100 |  | 
FC(F)(F)C(/C=C/c1ccc(CNC(=S)C2CC2)c(Cl)c1)c1cc(Cl)c(Cl)c(Cl)c1 (stereo not drawn) [CC20] | 50 to 100 | 50 to 100 |  | 
O=C(NCc1ccc(/C=C/C(c2cc(Cl)cc(Cl)c2)C(F)(F)F)cc1C(F)(F)F)C1CC1 (stereo not drawn) [CC21] | 50 to 100 | 50 to 100 |  | 
O=C(NCc1ccc(/C=C/C(c2cc(Cl)c(Cl)c(Cl)c2)C(F)(F)F)cc1C(F)(F)F)C1CC1 (stereo not drawn) [CC22] | 50 to 100 | 50 to 100 |  | 

SMILES | mortality at 50 µg/cm2 [1, 3] [%] | mortality at 50 µg/cm2 [2, 3] [%] | mortality at 50 µg/cm2 [1] [%] | mortality at 50 µg/cm2 [2] [%]
O=C(NCc1ccc(/C=C/C(c2cc(Cl)c(Cl)c(Cl)c2)C(F)(F)F)cc1C(F)(F)F)c1cccnc1 (stereo not drawn) [CC23] | 50 to 100 | 50 to 100 |  | 
O=C(CC(F)(F)F)NCc1ccc(/C=C/C(c2cc(Cl)c(Cl)c(Cl)c2)C(F)(F)F)cc1C(F)(F)F (stereo not drawn) [CC24] | 50 to 100 | 50 to 100 |  | 
O=C(CC(F)(F)F)NCc1ccc(/C=C/C(c2cc(Cl)c(Cl)c(Cl)c2)C(F)(F)F)cc1Br (stereo not drawn) [CC25] | 50 to 100 | 50 to 100 |  | 
O=C(NCc1ccc(/C=C/C(c2cc(Cl)c(Cl)c(Cl)c2)C(F)(F)F)cc1Br)C1CC1 (stereo not drawn) [CC26] | 0 | 50 to 100 |  | 
O=C(CC(F)(F)F)NCc1ccc(/C=C/C(c2cc(Cl)c(Cl)c(Cl)c2)C(F)(F)F)cc1F (stereo not drawn) [CC27] | 50 to 100 | 50 to 100 |  | 
O=C(NCc1ccc(/C=C/C(c2cc(Cl)c(Cl)c(Cl)c2)C(F)(F)F)cc1F)C1CC1 (stereo not drawn) [CC28] | 50 to 100 | 50 to 100 |  | 
O=C(C1CC1)N(Cc1ccccn1)Cc1ccc(/C=C/C(c2cc(Cl)c(Cl)c(Cl)c2)C(F)(F)F)cc1C(F)(F)F (stereo not drawn) [CC29, (E)-N-(pyridin-2-ylmethyl)-N-(4-(4,4,4-trifluoro-3-(3,4,5-trichlorophenyl)but-1-enyl)-2-(trifluoromethyl)benzyl)cyclopropanecarboxamide] | 50 to 100 | 50 to 100 |  | 
CS(=O)(=O)CCC(=O)NCc1ccc(/C=C/C(c2cc(Cl)c(Cl)c(Cl)c2)C(F)(F)F)cc1Cl (stereo not drawn) [CC30, (E)-N-(2-chloro-4-(4,4,4-trifluoro-3-(3,4,5-trichlorophenyl)but-1-en-1-yl)benzyl)-3-(methylsulfonyl)propanamide] | 50 to 100 | 50 to 100 |  | 
CCNC(=O)NCc1ccc(/C=C/C(c2cc(Cl)cc(Cl)c2)C(F)(F)F)cc1Cl (stereo not drawn) [CC31, (E)-1-(2-chloro-4-(3-(3,5-dichlorophenyl)-4,4,4-trifluorobut-1-en-1-yl)benzyl)-3-ethylurea] | 0 | 0 to 50 |  | 
CCNC(=O)NCc1ccc(/C=C/C(c2cc(Cl)c(Cl)c(Cl)c2)C(F)(F)F)cc1C(F)(F)F (stereo not drawn) [CC32] | 50 to 100 | 50 to 100 |  | 
CCNC(=O)NCc1ccc(/C=C/C(c2cc(Cl)c(Cl)c(Cl)c2)C(F)(F)F)cc1Br (stereo not drawn) [CC33] | 50 to 100 | 50 to 100 |  | 
O=C(NCc1ccc(/C=C/C(c2cc(Cl)c(Cl)c(Cl)c2)C(F)(F)F)cc1Cl)N1CCOCC1 (stereo not drawn) [CC34] | 50 to 100 | 50 to 100 |  | 
O=C(NCc1ccc(/C=C/C(c2cc(Cl)c(Cl)c(Cl)c2)C(F)(F)F)cc1Cl)Nc1ccccn1 (stereo not drawn) [CC35] | 0 | 0 |  | 
CN(C)C(=O)NCc1ccc(/C=C/C(c2cc(Cl)c(Cl)c(Cl)c2)C(F)(F)F)cc1Cl (stereo not drawn) [CC36, (E)-3-(2-chloro-4-(4,4,4-trifluoro-3-(3,4,5-trichlorophenyl)but-1-en-1-yl)benzyl)-1,1-dimethylurea] | 50 to 100 | 50 to 100 |  | 
CCNC(=S)NCc1ccc(/C=C/C(c2cc(Cl)c(Cl)c(Cl)c2)C(F)(F)F)cc1Cl (stereo not drawn) [CC37, (E)-1-(2-chloro-4-(4,4,4-trifluoro-3-(3,4,5-trichlorophenyl)but-1-en-1-yl)benzyl)-3-ethylthiourea] | 50 to 100 | 50 to 100 |  | 
C=CCNC(=S)NCc1ccc(/C=C/C(c2cc(Cl)c(Cl)c(Cl)c2)C(F)(F)F)cc1Cl (stereo not drawn) [CC38] | 50 to 100 | 50 to 100 |  | 
CC(C)(C)OC(=O)NCc1ccc(/C=C/C(c2cc(Cl)c(Cl)c(Cl)c2)C(F)(F)F)cc1Cl (stereo not drawn) [CC39] | 0 | 0 |  | 
O=C(NCc1ccc(/C=C/C(c2cc(Cl)c(Cl)c(Cl)c2)C(F)(F)F)cc1Cl)Oc1ccccc1Cl (stereo not drawn) [CC40] |  |  | 50 to 100 | 0
COC(=O)C(=O)NCc1ccc(/C=C/C(c2cc(Cl)c(Cl)c(Cl)c2)C(F)(F)F)cc1Cl (stereo not drawn) [CC41, (E)-methyl 2-((2-chloro-4-(4,4,4-trifluoro-3-(3,4,5-trichlorophenyl)but-1-en-1-yl)benzyl)amino)-2-oxoacetate] | 0 | 0 |  | 
O=C(NCc1ccc(/C=C/C(c2cc(Cl)c(Cl)c(Cl)c2)C(F)(F)F)cc1Cl)C(=O)NCC(F)(F)F (stereo not drawn) [CC42, (E)-N^1-(2-chloro-4-(4,4,4-trifluoro-3-(3,4,5-trichlorophenyl)but-1-en-1-yl)benzyl)-N^2-(2,2,2-trifluoroethyl)oxalamide] | 0 | 0 |  | 
FC(F)(F)C(/C=C/c1ccc(CNc2ccccn2)c(Cl)c1)c1cc(Cl)c(Cl)c(Cl)c1 (stereo not drawn) [CC43, (E)-N-(2-chloro-4-(4,4,4-trifluoro-3-(3,4,5-trichlorophenyl)but-1-en-1-yl)benzyl)pyridin-2-amine] | 0 to 50 | 50 to 100 |  | 
O=C(CC(F)(F)F)NCc1ncc(/C=C/C(c2cc(Cl)c(Cl)c(Cl)c2)C(F)(F)F)cc1Cl (stereo not drawn) [CC44, (E)-N-((3-chloro-5-(4,4,4-trifluoro-3-(3,4,5-trichlorophenyl)-but-1-en-1-yl)pyridin-2-yl)methyl)-3,3,3-trifluoropropanamide] | 50 to 100 | 50 to 100 |  | 
